Laboratory results as given in US8633245B2, “PAI-1 inhibitor” (Institute of Medicinal Molecular Design, Inc., priority 2008, dated 2014).

Target: T1, recombinant human PAI-1 (Homo sapiens, UniProt P05121)
T1 construct: purchased Molecular Innovations, Inc
Test: Test Example 1: human PAI-1 inhibitory activity (tPA fluorogenic substrate, pH 7.5 Tris buffer)
Assay type: biochemical
Details: Tris buffer
Description: 50 mM Tris, 150 mM NaCl, 10 μg/ml BSA, 0.01% Tween80 (SIGMA-ALDRICH Corporation)

T1 sequence (P05121 24-402): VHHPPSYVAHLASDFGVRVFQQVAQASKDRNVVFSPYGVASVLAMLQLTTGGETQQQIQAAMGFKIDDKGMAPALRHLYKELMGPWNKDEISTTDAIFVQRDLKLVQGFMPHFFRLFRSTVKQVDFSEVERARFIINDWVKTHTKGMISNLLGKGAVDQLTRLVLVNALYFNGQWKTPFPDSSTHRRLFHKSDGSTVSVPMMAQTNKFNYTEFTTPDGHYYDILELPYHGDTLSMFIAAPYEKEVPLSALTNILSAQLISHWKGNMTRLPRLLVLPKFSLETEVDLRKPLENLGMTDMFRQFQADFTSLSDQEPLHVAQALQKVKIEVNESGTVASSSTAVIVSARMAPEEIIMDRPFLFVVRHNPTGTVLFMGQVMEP

Row | SMILES | Inhibition Rate of PAI-1 Activity (%) (Compound Concentration 5 μM) | Inhibition Rate of PAI-1 Activity (%) (Compound Concentration 10 μM) | Inhibition Rate of PAI-1 Activity (%) (Compound Concentration 25 μM)
1 | CC(C)(C)c1ccc(COc2c(Cl)cc(-c3ccc(OC(F)(F)F)cc3)cc2C=CC(=O)O)cc1 [Compound 91] | 30% | 67% | 96%
2 | CC(C)(C)c1ccc(COc2c(Cl)cc(-c3ccc(OC(F)(F)F)cc3)cc2CCC(=O)O)cc1 [Compound 92] | 25% | 63% | 97%
3 | CC(C)(C)c1ccc(Oc2cccc(-c3ccc(OC(F)(F)F)cc3)c2C=CC(=O)O)cc1 [Compound 93] | 51% | 87% | 94%
4 | CC(C)(C)c1ccc(COc2ccc(Oc3ccc(OC(F)(F)F)cc3)cc2C=CC(=O)O)cc1 [Compound 95] | 28% | 77% | 96%
5 | O=C(O)C=Cc1c(Oc2ccc(OC(F)(F)F)cc2)cccc1Oc1ccc(OC(F)(F)F)cc1 [Compound 97] | 30% | 40% | 53%
6 | CC(C)(C)c1ccc(Oc2ccc(Oc3ccc(OC(F)(F)F)cc3)cc2C=CC(=O)O)cc1 [Compound 99] | 31% | 66% | 99%
7 | O=C(O)CCc1cc(-c2ccc(OC(F)(F)F)cc2)ccc1OCCCc1ccccc1 [Compound 101] | 42% | 73% | >99%
8 | O=C(O)CCc1cc(-c2ccc(OC(F)(F)F)cc2)ccc1OCCCOc1ccccc1 [Compound 103] | 33% | 57% | 89%
9 | O=C(O)CCc1cc(-c2ccc(OC(F)(F)F)cc2)ccc1OCCCCCc1ccccc1 [Compound 104] | 47% | 77% | 96%
10 | CC(C)(C)c1ccc(COc2ccc(-c3ccc(OC(F)(F)F)cc3)cc2COCC(=O)O)cc1 [Compound 107] | 48% | 85% | 97%
11 | CC(C)(C)c1ccc(COc2ccc(-c3ccc(OC(F)(F)F)cc3)cc2OCCCC(=O)O)cc1 [Compound 109] | 24% | 50% | 96%
12 | CC(C)(Oc1ccc(-c2ccc(OC(F)(F)F)cc2)cc1Oc1ccc(C(C)(C)C)cc1)C(=O)O [Compound 110] | 37% | 51% | 83%
13 | CC(C)(OCc1ccc(-c2ccc(OC(F)(F)F)cc2)cc1Oc1ccc(C(C)(C)C)cc1)C(=O)O [Compound 111] | 55% | 88% | 94%
14 | CCC(Oc1ccc(-c2ccc(OC(F)(F)F)cc2)cc1Oc1ccc(C(C)(C)C)cc1)C(=O)O (stereo not drawn) [Compound 114] | 64% | 87% | 95%
15 | O=C(O)COc1cc(-c2ccc(OC(F)(F)F)cc2)ccc1OCCCCc1ccccc1 [Compound 115] | 34% | 59% | 90%
16 | CC(C)(C)c1ccc(Oc2cc(-c3ccc(OC(F)(F)F)cc3)ccc2OC(F)C(=O)O)cc1 (stereo not drawn) [Compound 119] | 75% | 93% | 99%
17 | CC(C)(C)c1ccc(Oc2cc(-c3ccc(OC(F)(F)F)cc3)ccc2OC(F)(F)C(=O)O)cc1 [Compound 120] | 59% | 87% | 98%
18 | CC(C)(C)c1ccc(COc2ccc(-c3ccc(OC(F)(F)F)cc3)cc2OCc2nnn[nH]2)cc1 [Compound 122] | 29% | 63% | 99%
19 | Cc1cc(C)cc(CN(C(=O)C(=O)O)c2ccc(-c3ccc(OC(F)(F)F)cc3)cc2)c1 [Compound 123] | 27% | 62% | 
20 | O=C(O)C(=O)N(Cc1ccc(Cl)cc1)c1ccc(-c2ccc(OC(F)(F)F)cc2)cc1 [Compound 124] | 22% | 49% | 
21 | Cc1cccc(CN(C(=O)C(=O)O)c2ccc(-c3ccc(OC(F)(F)F)cc3)cc2)c1 [Compound 125] | 15% | 31% | 
22 | COc1ccc(-c2ccc(N(Cc3ccc(C(C)(C)C)cc3)C(=O)C(=O)O)cc2)cc1 [Compound 126] | 16% | 43% | 
23 | CC(C)(C)c1ccc(CN(C(=O)C(=O)O)c2ccc(-c3ccc(F)cc3)cc2)cc1 [Compound 127] | 21% | 43% | 
24 | CC(C)(C)c1ccc(N(C(=O)C(=O)O)c2ccc(-c3ccc(OC(F)(F)F)cc3)cc2)cc1 [Compound 128] | 58% | 89% | 
25 | COc1ccc(CN(C(=O)C(=O)O)c2ccc(-c3ccc(OC(F)(F)F)cc3)cc2)cc1 [Compound 131] |  | 10% | 34%
26 | CC(C)(C)c1ccc(CN(C(=O)C(=O)O)c2ccc(Oc3ccc(OC(F)(F)F)cc3)cc2)cc1 [Compound 132] |  | 32% | 82%
27 | CC(C)(C)c1ccc(CN(C(=O)C(=O)O)c2ccc(-c3ccc(OC(F)(F)F)cc3)cc2)cc1 [Compound 133] | 80% | 92% | 
28 | CSc1ccc(-c2ccc(N(Cc3ccc(C(C)(C)C)cc3)C(=O)C(=O)O)cc2)cc1 [Compound 134] |  | 14% | 75%
29 | CC(C)(C)c1ccc(CN(C(=O)C(=O)O)c2ccc(-c3ccc(Cl)cc3)cc2)cc1 [Compound 135] |  | 6% | 67%

Second part, the compound after the results:

Row | Inhibition Rate of PAI-1 Activity (%) (Compound Concentration 5 μM) | Inhibition Rate of PAI-1 Activity (%) (Compound Concentration 10 μM) | Inhibition Rate of PAI-1 Activity (%) (Compound Concentration 25 μM) | SMILES
30 | 16% | 47% | 79% | Cc1ccc(-c2ccc(OC(F)(F)F)cc2)cc1N(Cc1ccc(C(C)(C)C)cc1)C(=O)C(=O)O [Compound 136]
31 |  | 5% | 61% | Cc1ccc(-c2ccccc2)cc1N(Cc1ccc(C(C)(C)C)cc1)C(=O)C(=O)O [Compound 137]
32 |  | 4% | 61% | Cc1ccc(-c2cccc([N+](=O)[O-])c2)cc1N(Cc1ccc(C(C)(C)C)cc1)C(=O)C(=O)O [Compound 138]
33 | 6% | 31% | 77% | CC(C)(C)c1ccc(CN(C(=O)C(=O)O)c2cc(-c3ccccc3)cc(C(F)(F)F)c2)cc1 [Compound 140]
34 |  | 5% | 52% | Cc1ccc(-c2ccc(N(Cc3ccc(C(C)(C)C)cc3)C(=O)C(=O)O)cc2)cc1 [Compound 141]
35 |  | 3% | 33% | CC(C)(C)c1ccc(CN(C(=O)C(=O)O)c2ccc(-c3cccc([N+](=O)[O-])c3)cc2)cc1 [Compound 142]
36 |  | 1% | 22% | Cc1ccc(CN(C(=O)C(=O)O)c2ccc(-c3ccc(OC(F)(F)F)cc3)cc2)cc1 [Compound 143]
37 | 3% | 22% | 76% | O=C(O)C(=O)N(Cc1ccc(Cl)cc1Cl)c1ccc(-c2ccc(OC(F)(F)F)cc2)cc1 [Compound 144]
38 | 7% | 35% | 74% | CC(C)(C)c1ccc(CN(C(=O)C(=O)O)c2ccc(-c3ccc(C(F)(F)F)cc3)cc2)cc1 [Compound 145]
39 | 33% | 73% | 90% | Cc1cc(-c2ccc(OC(F)(F)F)cc2)ccc1N(Cc1ccc(C(C)(C)C)cc1)C(=O)C(=O)O [Compound 146]
40 | 17% | 55% | 98% | CC(C)(C)c1ccc(CN(C(=O)C(=O)O)c2ccccc2-c2ccc(OC(F)(F)F)cc2)cc1 [Compound 148]
41 |  | 3% | 34% | CC(C)(C)c1ccc(CN(C(=O)C(=O)O)c2ccc(-c3ccc(C#N)cc3)cc2)cc1 [Compound 149]
42 | 33% | 75% | 87% | CC(C)(C)c1ccc(CN(C(=O)C(=O)O)c2ccc(-c3ccc(OC(F)(F)F)cc3)cc2C(F)(F)F)cc1 [Compound 150]
43 | 35% | 80% | 90% | CC(C)(C)c1ccc(CN(C(=O)C(=O)O)c2ccc(-c3ccc(OC(F)(F)F)cc3)cc2OC(F)(F)F)cc1 [Compound 151]
44 | 41% | 88% | 93% | Cc1cc(-c2ccc(OC(F)(F)F)cc2)cc(C)c1N(Cc1ccc(C(C)(C)C)cc1)C(=O)C(=O)O [Compound 152]
45 | 20% | 54% | 93% | CC(C)(C)c1ccc(CN(C(=O)C(=O)O)c2ccccc2Oc2ccc(OC(F)(F)F)cc2)cc1 [Compound 153]
46 |  | 3% | 20% | O=C(O)C(=O)N(Cc1ccccc1)c1ccc(Oc2ccc(OC(F)(F)F)cc2)cc1 [Compound 154]
